{
  "source": "paper PMC7217877",
  "about": "“N-AS-triggered SPMs are direct regulators of microglia in a model of Alzheimer’s disease” (Nature Communications, 2020)",
  "key": {"APP/PS1 mice": {"system": "APP/PS1 mice", "assay": "flow cytometry of brain microglia polarity (CD86/CD206, Fig 4e)", "format": "in vivo, mouse", "details": "APP/PS1 + N-AS, individual values", "protocol": "Transgenic mouse lines over-expressing the hAPP695swe (APP) and presenilin-1M146V (PS1) mutations were originated from GlaxoSmithKline (Harlow, UK)[32] and maintained as described previously. We purchased 5×FAD mice from Jackson Labs (Stock number. 34840-JAX). Because APP/PS1 and 5xFAD mice show sex differences in disease progression, we used only male mice. To examine possible therapeutic effect of N-AS and aspirin in APP/PS1 mice, the N-AS (30 mg kg^−1, Sigma-Aldrich, 01912) was injected daily s.c. for 8 weeks to 7-months-old APP/PS1 mice until the age of 9 months, and aspirin (2 mg kg^−1, Sigma-Aldrich, A5376)[33] was administrated orally to 7-months-old APP/PS1 mice for 8 weeks. Also, to confirm possible therapeutic efficacy of N-AS in 5×FAD, the N-AS (30 mg kg^−1, Sigma-Aldrich, 01912) was injected daily s.c. for 4 weeks to 3-months-old 5×FAD mice until the age of 4 months. Block randomization method was used to allocate the animals to experimental groups. To eliminate the bias, we were blinded in experimental progress such as data collection and data analysis. Mice were housed at temperature of 22 °C and a 12 h day/12 h night cycle with free access to tap water and food pellets. All protocols were approved by the Kyungpook National University Institutional Animal Care and Use Committee.\nBrain microglia polarity and immune cells in brain and blood were analyzed by flow cytometry. Cells from WT, APP/PS1, and APP/PS1 treated with N-AS mice brain were prepared as previously described with minor modifications. Brains of WT, APP/PS1, and APP/PS1 treated with N-AS mice were dissected and immediately transferred in ice-cold HBSS (Gibco). After gentle mincing, the brain was digested in a HBSS solution containing collagenase P (0.2 mg ml^−1, Roche), dispase II (0.8 mg ml^−1, Roche), DNase I (0.01 mg ml^−1, Roche), and collagenase A (0.3 mg ml^−1, Roche) at 37 °C for 1 h under gentle rocking. […] Red blood cells were lysed once at 4 °C for 10 min in 0.15 M NH4Cl ([…] Technologies), washed once with PBS (Gibco), and counted using cell counter (Logos biosystems). […]"}, "COX2": {"biological_target": "T1, COX2 (Homo sapiens, UniProt P35354)", "T1 sequence (P35354 18-604)": "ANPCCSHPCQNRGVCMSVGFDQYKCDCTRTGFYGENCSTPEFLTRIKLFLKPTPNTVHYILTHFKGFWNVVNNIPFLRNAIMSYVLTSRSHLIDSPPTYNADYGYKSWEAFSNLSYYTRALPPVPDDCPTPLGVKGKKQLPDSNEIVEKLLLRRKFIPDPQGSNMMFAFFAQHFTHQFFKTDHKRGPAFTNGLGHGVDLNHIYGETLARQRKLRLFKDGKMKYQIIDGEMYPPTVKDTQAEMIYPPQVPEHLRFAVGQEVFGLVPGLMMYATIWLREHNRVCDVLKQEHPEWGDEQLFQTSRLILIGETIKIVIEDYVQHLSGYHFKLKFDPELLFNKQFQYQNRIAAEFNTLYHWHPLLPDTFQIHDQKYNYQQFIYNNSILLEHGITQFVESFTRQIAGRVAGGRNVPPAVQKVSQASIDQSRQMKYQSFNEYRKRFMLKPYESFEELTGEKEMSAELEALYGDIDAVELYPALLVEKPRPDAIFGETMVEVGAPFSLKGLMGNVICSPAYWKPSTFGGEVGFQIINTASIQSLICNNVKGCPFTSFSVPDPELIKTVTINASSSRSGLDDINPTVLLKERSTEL", "assay": "S565 acetylation of recombinant COX2 (ac-S565 western blot, LC-MS/MS of acetylated site)", "format": "biochemical", "parameters": "purchased LSBio LS-G21094", "details": "2 mM; vs naive and aspirin-treated COX2", "protocol": "To identify the acetylation site of COX2, N-AS (Sigma-Aldrich, 01912)-treated COX2 enzymes (LSBio, LS-G21094) were immediately precipitated with trichroloacetic acid (Merck) and dried. The dried extract was resuspended in 10 μl of 5 M Urea solution and incubated with 1 μg sequencing-grade modified porcine trypsin (Promega) in 0.1 M ammonium bicarbonate buffer at 37 °C for 16 h. The sample was then treated with 1 M DTT (GE Healthcare) at RT for 1 h, followed by alkylation with 1 M iodoacetamide (Sigma-Aldrich) for 1 h. For sequencing, the protein samples were loaded onto a ZORBAX 300SB-C18 column (3.5 μm, 1.0 mm i.d. × 150 mm, Agilent). The column was placed in-line with an UltiMate 3000 system (Dionex, USA) and a splitter system was used to achieve a flow rate of 100 μl min^−1. Analytes were eluted with a mobile phase consisting of water: formic acid (100:0.2 v/v) (phase A) and acetonitrile: formic acid (100:0.2 v/v) (phase B) in gradient elution mode for 77 min. […]\nSamples were lysed in RIPA buffer (Cell signaling Technologies), then subjected to SDS-PAGE and transferred to a nitrocellulose membrane. […] We performed densitometric quantification using the ImageJ software (National Institutes of Health). […]"}},
  "note": "“And” between values parts separate entries of the source, which are not always exact repeats. Identical values can stand only once.",
  "data": [
    {"compound": "CCCCCCCCCCCCC/C=C/[C@@H](O)[C@H](CO)NC(C)=O", "note": "[N-AS, N-((2S,3R,E)-1,3-Dihydroxyoctadec-4-en-2-yl)acetamide]", "values": [
      {"measurement": "calculated percentage of CD86+ CD206+ cells", "setting": "APP/PS1 mice", "value": "1.29 and 0.77 and 0.87 and 1.7 and 1.28 and 1.46"},
      {"measurement": "calculated percentage of CD86+ CD206- (pro-inflammatory microglia) cells", "setting": "APP/PS1 mice", "value": "0.012 and 0.071 and 0.011 and 0.023 and 0.034 and 0.025"},
      {"measurement": "calculated percentage of CD86- CD206+ (anti-inflammatory microglia) cells", "setting": "APP/PS1 mice", "value": "3.06 and 1.43 and 2.01 and 2.77 and 2.35 and 2.46"},
      {"measurement": "ac-S565 signal in western blot of recombinant COX2", "setting": "COX2", "value": "strong ac-S565-positive signals"}
    ]}
  ]
}
